Patent US5453440A, “Peptide mimics useful as platelet aggregation inhibitors” (G. D. Searle & Co., priority 1993, dated 1995)

Columns and labels:
[1] = tested on: fibrinogen binding to platelets; experiment: Fibrinogen binding assay (125I-fibrinogen binding to ADP-activated human platelets); settings: ADP 10 μM, 125I-fibrinogen 0.3 μM, 40 min at 37° C.
Protocol: Fibrinogen binding was performed essentially as described by Plow et al., Blood 70, 110-115 (1987). Briefly, blood from humans who had not been given any antiplatelet drugs in the previous two weeks was collected into 1/10th volume of CCD buffer (100 mM sodium citrates, 136 mM glucose, pH 6.5). The blood was centrifuged for 3 min at 1000×g and platelet rich plasma was transferred to a plastic tube with a plastic pipet and placed on ice. After 15 minutes, 1/2 volume of ice cold CCD buffer was added and the sample was centrifuged at 900×g for 10 min at 2° C. The supernatant was decanted and the platelet pellet was gently resuspended in 1/2 the original volume of ice cold modified Tyrode's buffer (137 mM NaCl, 2.6 mM KCl, 12 mM NaHCO3, 5.5 mM glucose, 15 mM HEPES, 0.5% BSA, pH 7.4). After incubating for 30 minutes at 37° C., the platelet count was adjusted to 4×10^8 platelets/ml with modified Tyrode's buffer. To test samples (final concentration=1×10^8 platelets/ml) were added in sequence: ADP (10 μM), CaCl2 (2 mM), test compound, and ^125 I-fibrinogen (0.3 μM) to the aforesaid final concentrations in a volume of 200 μ1. […] Specific binding was determined in each test by subtracting from the total binding the amount of ^125 I-fibrinogen bound in the presence of a 60-fold excess of unlabeled fibrinogen. […]

[2] = tested on: platelet aggregation in dog PRP; experiment: In-vitro platelet aggregation in PRP (ADP-induced, dog platelet-rich plasma); type: cell-based; settings: Canis lupus familiaris, ADP 50 μm final concentration, 37° C., 1 minute preincubation
Protocol: Healthy male or female dogs were fasted for 8 hours prior to drawing blood; then 30 ml whole blood was collected using a butterfly needle and 30 cc plastic syringe with 3 ml of 0.129 M buffered sodium citrate (3.8%). The syringe was rotated carefully as blood was drawn to mix the citrate. Platelet-rich plasma (PRP) was prepared by centrifugation at 975×g for 3.17 minutes at room temperature, allowing the centrifuge to coast to a stop without braking. The PRP was removed from the blood with a plastic pipette and placed in a plastic capped, 50 ml Corning conical sterile centrifuge tube which was held at room temperature. Platelet poor plasma (PPP) was prepared by centrifuging the remaining blood at 2000×g for 15 minutes at room temperature allowing the centrifuge to coast to a stop without braking. The PRP was adjusted with PPP to a count of 2-3×10^8 platelets per ml. 400 μl of the PRP preparation and 50 μl of the compound to be tested or saline were preincubated for 1 minute at 37° C. in a BioData aggregometer (BioData, Horsham, Pa.). 50 μl of adenosine 5'-diphosphate (ADP) (50 μm final concentration) was added to the cuvettes and the aggregation was monitored for 1 minute. All compounds are tested in duplicate. Results are calculated as follows:
Percent of control=[(maximal OD minus initial OD of compound) divided by (maximal OD minus initial OD of control saline)]×100. The % inhibition=100-(percent of control).

COC(=O)[C@H](Cc1ccccc1)NC(=O)[C@H](CC(=O)O)NC(=O)CCC(=O)Nc1ccc(C(=N)N)cc1 [Example 1, N-[N-[4-[[4-(aminoiminomethyl)phenyl]-amino]-1,4-dioxobutyl]-L-alpha-aspartyl]-L-phenylalanine, 1-methyl ester]
IC50 [1]: 48 nM
IC50 [2]: 90 nM

N=C(N)c1ccc(NC(=O)CCC(=O)N[C@@H](CC(=O)O)C(=O)N[C@@H](Cc2ccccc2)C(=O)O)cc1 [Example 2, N-[N-[4-[[4-(aminoiminomethyl)phenyl]amino]-1,4-dioxobutyl]-L-alpha-aspartyl]-L-phenylalanine]
IC50 [2]: 80 nM

N=C(N)c1ccc(N(Cc2ccccc2)C(=O)CCC(=O)N[C@@H](CC(=O)O)C(=O)N[C@@H](Cc2ccccc2)C(=O)O)cc1 [Example 9]
IC50 [2]: 350 nM
